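1) Cells in 96-well plates. 2) Compound, 48 h, 5 concentrations. 3) Linear interpolation between surrounding doses. 4) Unreached endpoint = highest concentration. Abbreviation: GI50, concentration required for 50% inhibition of growth. The concentration for full growth arrest is given as TGI.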
Key:
Assay in all cases: DTP human tumour cell line panel, 48 h
[1] = test system: K-562 leukemia
[2] = test system: HOP-92 NSCLC
[3] = test system: SF-295 CNS
[4] = test system: OVCAR-5 ovarian
[5] = test system: OVCAR-3 ovarian
[6] = test system: SN12C renal
[7] = test system: A549 NSCLC
[8] = test system: OVCAR-4 ovarian
[9] = test system: SK-MEL-5 melanoma
[10] = test system: CCRF-CEM leukemia

## COC(=O)/C(=C\c1c(C)[nH]c2ccccc12)S(=O)(=O)c1ccccc1
[1]
  GI50: > 100 µM
  TGI: > 100 µM
[2]
  GI50: 4.14 µM
  TGI: 51.2 µM
[3]
  GI50: 3.07 µM
  TGI: 15.7 µM
[4]
  GI50: 17.4 µM
  TGI: 38 µM
[5]
  GI50: 2700 nM
  TGI: 7.56 µM
[6]
  GI50: 2550 nM
  TGI: 10.3 µM
[7]
  GI50: 4.87 µM
  TGI: 64 µM
[8]
  GI50: 5.71 µM
  TGI: > 100 µM

## Cc1ccc2c(=O)c3cccc(CC(=O)O)c3oc2c1C
[1]
  GI50: > 100 µM
  TGI: > 100 µM
[2]
  GI50: > 100 µM
  TGI: > 100 µM
[9]
  GI50: > 100000 nM
  TGI: > 100 µM
[3]
  GI50: > 100 µM
  TGI: > 100 µM
[4]
  GI50: > 100 µM
  TGI: > 100 µM
[5]
  GI50: > 100000 nM
  TGI: > 100 µM
[10]
  GI50: > 100000 nM
  TGI: > 100 µM
[6]
  GI50: > 100000 nM
  TGI: > 100 µM
[7]
  GI50: > 100 µM
  TGI: > 100 µM
[8]
  GI50: > 100 µM
  TGI: > 100 µM

## C[C@]12CCC(=O)C(O)=C1CC[C@@H]1[C@@H]2CC[C@]2(C)C(=O)CC[C@@H]12
[1]
  TGI: > 100 µM
[2]
  TGI: > 100 µM
[9]
  TGI: > 100 µM
[3]
  TGI: > 100 µM
[4]
  TGI: > 100 µM
[5]
  TGI: > 100 µM
[10]
  TGI: > 100 µM
[6]
  TGI: > 100 µM
[7]
  TGI: > 100 µM
[8]
  TGI: > 100 µM

## CCOP(=O)(OCC)/C(C#N)=C/c1ccco1
[1]
  TGI: > 100 µM
[2]
  TGI: > 100 µM
[9]
  TGI: > 100 µM
[3]
  TGI: > 100 µM
[4]
  TGI: > 100 µM
[10]
  TGI: > 100 µM
[6]
  TGI: > 100 µM
[7]
  TGI: > 100 µM
[8]
  TGI: > 100 µM

## CCOC(=O)c1ccc(N2C(=O)/C(=C\OC)c3ccccc3C2=O)cc1
[1]
  TGI: > 100 µM
[9]
  TGI: > 100 µM
[3]
  TGI: > 100 µM
[4]
  TGI: > 100 µM
[5]
  TGI: > 100 µM
[6]
  TGI: > 100 µM
[7]
  TGI: > 100 µM
[8]
  TGI: > 100 µM

## CC1NOC(=O)C1N=Nc1ccccc1Cl (stereo not drawn)
[1]
  TGI: > 100 µM
[2]
  TGI: 54.6 µM
[9]
  TGI: 32.9 µM
[3]
  TGI: > 100 µM
[4]
  TGI: > 100 µM
[5]
  TGI: > 100 µM
[10]
  TGI: > 100 µM
[6]
  TGI: > 100 µM
[7]
  TGI: > 100 µM
[8]
  TGI: > 100 µM

## CC(=O)/C=C/c1ccc(C2CC(C)=Nc3c(ccc4c3C(=O)c3ccccc3C4=O)N2)cc1 (stereo not drawn)
[1]
  TGI: > 100 µM
[2]
  TGI: > 100 µM
[9]
  TGI: > 100 µM
[3]
  TGI: > 100 µM
[4]
  TGI: > 100 µM
[5]
  TGI: > 100 µM
[10]
  TGI: > 100 µM
[6]
  TGI: > 100 µM
[7]
  TGI: > 100 µM
[8]
  TGI: > 100 µM

## C[C@]12CC[C@@H]3c4ccc(O)cc4CC[C@H]3[C@@H]1CC[C@@H]2NS(=O)(=O)Cc1ccc(Cl)cc1
[1]
  GI50: 2.99 µM
  TGI: 21.3 µM
[2]
  GI50: 2.13 µM
  TGI: 7.24 µM
[9]
  GI50: 1770 nM
  TGI: 3.45 µM
[3]
  GI50: 1.72 µM
  TGI: 3.56 µM
[4]
  GI50: 3.76 µM
  TGI: 14.2 µM
[5]
  GI50: 1910 nM
  TGI: 3.83 µM
[10]
  GI50: 2630 nM
  TGI: > 100 µM
[6]
  GI50: 1700 nM
  TGI: 3.36 µM
[7]
  GI50: 2.98 µM
  TGI: 11 µM
[8]
  GI50: 2.69 µM
  TGI: 13.6 µM

## CS(=O)c1ccc(COP(N)(=O)N(CCCl)CCCl)cc1 (stereo not drawn)
[1]
  TGI: > 100 µM
[2]
  TGI: > 100 µM
[9]
  TGI: > 100 µM
[3]
  TGI: > 100 µM
[4]
  TGI: > 100 µM
[5]
  TGI: > 100 µM
[10]
  TGI: > 100 µM
[6]
  TGI: > 100 µM
[7]
  TGI: > 100 µM
[8]
  TGI: > 100 µM

Reference: PubChem BioAssay (NCI)
